Laboratory results: US20110189709A1, “METHOD FOR DETECTING HEPATIC INJURY DUE TO ANTITHYROID DRUG” (YAMASA CORPORATION, priority 2010, published 2011)

Key:
[1] = tested on: primary cultured hepatocytes; conditions: 10 mM PTU, 1 hour and 3 hours after adding
Method: Rat hepatocytes, which were isolated by collagenase prefusion, are placed into a 24-well plate coated with collagen to have 10^5 cells/well and cultured for 4 hours. After removing the cells not fixed to the well, 10 mM of PTU was added to the cells and each of the 3 cultured media prior to adding the PTU, of 1 hour after adding the PTU, and of 3 hours after adding PTU, was sampled. After 3 hours of culturing, 0.5% of Triton-X100 was added to destroy the cells and a suspended solution was obtained. OCT, ALT and AST levels in each of the sampled cultured medium and the suspended solution after cell destruction were measured. […] Based upon an activity of the suspended solution as 100%, leakage rates of OCT, AST and ALT were calculated in each cultured medium obtained by sampling.

[2] = Rat thyrotoxicosis model (T3 administration); type: in vivo
Method: Each of blood OCT, AST and ALT levels was measured before and after the administration.

[3] = liver homogenate after 10 days T3, vs control group

## CCCc1cc(=O)[nH]c(=S)[nH]1 [PTU, propylthiouracil]
[1]; FIG. 1
  levels of AST, ALT and OCT in cultured medium: elevated
[1]; suspended solution after cell destruction = 100%
  OCT leakage rates compared to the ALT leakage rates: higher

## N[C@@H](Cc1cc(I)c(Oc2ccc(O)c(I)c2)c(I)c1)C(=O)O [T3]
[2]; [3]
  ALT content in the liver: elevated significantly
  AST content in the liver: elevated significantly
[2]; male Wistar rats, T3 0.1 mg/kg/day s.c. for 10 days, ELISA, control group 14.0±1.6
  blood OCT level: 11.9 ± 2.5 ng/mL
[2]; male Wistar rats, T3 0.1 mg/kg/day s.c. for 10 days, control group 8.2±0.8
  blood ALT level: 11.2±0.6 IU/L
[2]; male Wistar rats, T3 0.1 mg/kg/day s.c. for 10 days, control group 29.0±5.1
  blood AST level: 40.0±6.51 IU/L
[2]; male Wistar rats, T3 0.1 mg/kg/day s.c. for 10 days, control group 303±15.9 g
  body weight: 266 ± 5.8 g
